Reference: US20220267260A1, “COMPOUNDS CONTAINING A SULFONIC GROUP AS KAT INHIBITORS” (Epizyme, Inc., priority 2016, published 2022)

Columns and labels:
KAT5 = target: T1, KAT5 (Homo sapiens, UniProt Q92993); test: KAT5 enzyme inhibition assay (SAMDI mass spectrometry); format: biochemical; conditions: His-TEV-FL KAT5-Flag enzyme construct
T1 construct: His-TEV tag (N, cleaved yes); made in house

KAT6A = target: T2, KAT6A (Homo sapiens, UniProt Q92794); test: KAT6A enzyme inhibition assay (SAMDI mass spectrometry); format: biochemical; conditions: His-TEV-KAT6A 501-784 enzyme construct
T2 construct: His-TEV tag (N, cleaved yes); made in house
T2 sequence (Q92794 with tags, fused parts or gaps): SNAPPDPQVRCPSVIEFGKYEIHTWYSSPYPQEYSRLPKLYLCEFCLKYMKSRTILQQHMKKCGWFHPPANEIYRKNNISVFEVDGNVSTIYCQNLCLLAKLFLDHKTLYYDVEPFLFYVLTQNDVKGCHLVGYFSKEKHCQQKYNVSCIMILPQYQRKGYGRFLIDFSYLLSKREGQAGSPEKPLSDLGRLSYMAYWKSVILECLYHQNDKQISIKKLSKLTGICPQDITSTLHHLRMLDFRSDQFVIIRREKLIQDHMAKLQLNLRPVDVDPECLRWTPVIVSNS

T1 sequence (Q92993 with tags, fused parts or gaps): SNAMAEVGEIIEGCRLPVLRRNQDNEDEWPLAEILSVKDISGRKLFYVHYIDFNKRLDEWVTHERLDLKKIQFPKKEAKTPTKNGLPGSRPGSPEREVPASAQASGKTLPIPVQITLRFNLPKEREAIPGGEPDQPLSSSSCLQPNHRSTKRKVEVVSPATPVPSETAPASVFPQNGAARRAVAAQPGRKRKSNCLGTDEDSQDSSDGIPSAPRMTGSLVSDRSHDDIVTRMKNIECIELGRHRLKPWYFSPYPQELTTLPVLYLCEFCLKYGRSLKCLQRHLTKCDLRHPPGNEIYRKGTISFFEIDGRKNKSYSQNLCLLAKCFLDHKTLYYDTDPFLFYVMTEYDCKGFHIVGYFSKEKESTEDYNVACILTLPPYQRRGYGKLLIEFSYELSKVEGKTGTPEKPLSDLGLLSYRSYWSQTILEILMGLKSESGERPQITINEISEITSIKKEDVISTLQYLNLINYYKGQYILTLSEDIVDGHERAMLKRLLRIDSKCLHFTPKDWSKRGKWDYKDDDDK

Row | SMILES | IC50 (KAT5) [µM] | IC50 (KAT6A) [µM]
1 | Cc1cccc(S(=O)(=O)NNC(=O)c2cc(-c3ccccc3)ccc2F)c1 [Compound I-131] | > 100 | ≤ 10
2 | COCCNC(=O)c1cccc(-c2cc(C)c(F)c(C(=O)N(N)S(=O)(=O)c3ccccc3)c2)c1 [Compound I-477] | > 100 | > 100
3 | O=C(NNS(=O)(=O)c1ccccc1)c1cnn(Cc2ccccc2)c1 [Compound I-230] | > 100 | > 100
4 | Cc1cc(-c2ccccc2)cc(C(=O)NCC(O)c2ccccc2)c1F (stereo not shown) [Compound I-178] | > 100 | > 100
5 | O=C(NNS(=O)(=O)c1cccc(-c2ccccc2)c1)C1CCCCC1 [Compound I-522] | > 100 | > 100
6 | O=C(NN[S+]([O-])c1ccccc1)c1ccccc1F (stereo not shown) [Compound I-133] | > 100 | > 100
7 | O=C(NNS(=O)(=O)c1ccccc1)c1ccccc1 [Compound I-159] | > 100 | 50 to 100
8 | COc1ccccc1S(=O)(=O)NNC(=O)c1c(F)ccc(-c2ccccc2)c1C [Compound I-237] | > 100 | 50 to 100
9 | CC(C)n1nc(CNC(=O)CNS(=O)(=O)c2ccccc2)c2ccccc21 [Compound I-525] | > 100 | –
10 | O=C(NNS(=O)(=O)c1ccccc1)c1n[nH]c2ccccc12 [Compound I-196] | > 100 | 50 to 100
11 | O=C(NNS(=O)(=O)c1ccccc1)c1ccccc1Cl [Compound I-149] | > 100 | > 100
12 | CNC(=O)CCNC(=O)c1cc(Cl)c(F)c(C(=O)NNS(=O)(=O)C2CCCCC2)c1 [Compound I-474] | > 100 | > 100
13 | O=C(NC1CCC1)c1cc(Cl)c(F)c(C(=O)NNS(=O)(=O)C2CCCCC2)c1 [Compound I-473] | > 100 | > 100
14 | Cc1cc(-c2ccccc2)cc(C(=O)NNS(=O)(=O)c2cccc(C3CC3)c2)c1F [Compound I-201] | > 100 | –
15 | O=C(NNS(=O)(=O)c1ccccc1)c1ccc(Cl)cc1 [Compound I-181] | > 100 | –
16 | O=C(NNS(=O)(=O)c1ccccc1)c1cccc(F)c1 [Compound I-191] | > 100 | –
17 | O=C(NNS(=O)(=O)c1ccccc1F)c1ccccc1 [Compound I-163] | > 100 | –
18 | COc1ccc(S(=O)(=O)NNC(=O)c2ccccc2F)cc1 [Compound I-179] | > 100 | –
19 | COc1cccc(C(=O)NNS(=O)(=O)c2ccccc2)c1 [Compound I-182] | > 100 | –
20 | Cc1cc(-c2ccccc2)cc(C(=O)NNS(=O)(=O)c2cccc(C(C)C)c2)c1F [Compound I-218] | > 100 | –
21 | O=C(NNS(=O)(=O)c1ccc2ccccc2c1)c1ccccc1 [Compound I-146] | > 100 | –

Results, then the molecule that gave them:

Row | IC50 (KAT5) [µM] | IC50 (KAT6A) [µM] | SMILES
22 | > 100 | > 100 | O=C(NNS(=O)(=O)c1ccccc1)c1ncccn1 [Compound I-189]
23 | ≤ 10 | 10 to 50 | Cc1cc(-c2ccccc2)cc(C(=O)NNS(=O)(=O)C2CCCC2)c1F [Compound I-19]
24 | ≤ 10 | ≤ 10 | Cc1cc(-c2ccccc2)cc(C(=O)NNS(=O)(=O)c2cccc(CO)c2)c1F [Compound I-261]
25 | 50 to 100 | 50 to 100 | Cc1c(-c2ccccc2)ccc(F)c1C(=O)NNS(=O)(=O)CC1CCCCC1 [Compound I-258]
26 | 50 to 100 | 10 to 50 | Cc1cc(-c2ccccc2)cc(C(=O)NNS(=O)(=O)C2CCN(C)C2)c1F (stereo not shown) [Compound I-31]
27 | ≤ 10 | ≤ 10 | Cc1cc(-c2ccccc2)cc(C(=O)NNS(=O)(=O)c2cccc(C(N)=O)c2)c1F [Compound I-383]
28 | > 100 | > 100 | Cc1cc(-c2ccccc2)cc(C(=O)NNS(=O)(=O)C2CN(Cc3ccc(Cl)cc3)C2)c1F [Compound I-63]
29 | ≤ 10 | ≤ 10 | COCC(=O)N1CCC(CS(=O)(=O)NNC(=O)c2cc(-c3ccccc3)cc(C)c2F)CC1 [Compound I-344]
30 | 50 to 100 | 50 to 100 | Cc1cc(-c2ccccc2Cl)cc(C(=O)NNS(=O)(=O)C2CCCCC2)c1F [Compound I-318]
31 | > 100 | > 100 | Cn1cnc2cc(-c3ccccc3)c(F)c(C(=O)NNS(=O)(=O)C3CCCCC3)c21 [Compound I-402]
32 | 10 to 50 | ≤ 10 | Cc1cc(-c2ccccc2)cc(C(=O)NNS(=O)(=O)C2CCN(C(=O)OC(C)(C)C)C2)c1F (stereo not shown) [Compound I-118, tert-Butyl 3-((2-(4-fluoro-5-methyl-[1,1′-biphenyl]-3-carbonyl)hydrazinyl)sulfonyl)pyrrolidine-1-carboxylate]
33 | > 100 | > 100 | Cc1nn(-c2ccccc2)cc1C(=O)NNS(=O)(=O)c1ccccc1 [Compound I-124]
34 | ≤ 10 | ≤ 10 | O=C(NNS(=O)(=O)C1CCCCC1)c1cc(-c2cccc(F)c2)cc(Cl)c1F [Compound I-395]
35 | 50 to 100 | 10 to 50 | CC(=O)N1CC(S(=O)(=O)NNC(=O)c2cc(-c3ccccc3)cc(C)c2F)C1 [Compound I-40]
36 | ≤ 10 | ≤ 10 | Cc1cc(-c2ccccc2)cc(C(=O)NNS(=O)(=O)C2CCCCC2)c1F [Compound I-18]
37 | ≤ 10 | ≤ 10 | COc1ccccc1S(=O)(=O)NNC(=O)c1cc(-c2ccccc2)cc(C)c1F [Compound I-176]
38 | ≤ 10 | ≤ 10 | Cc1cc(-c2ccccc2)cc(C(=O)NNS(=O)(=O)CC2CCCN(C(=O)C(C)(C)C)C2)c1F (stereo not shown) [Compound I-281]
39 | 10 to 50 | ≤ 10 | O=C(NNS(=O)(=O)c1ccc(Cl)cc1)c1c(F)ccc(-c2ccccc2)c1F [Compound I-156]
40 | 50 to 100 | > 100 | O=C(NNS(=O)(=O)C1CCN(C(=O)C2CCC2)CC1)c1cc(Cl)cc(Cl)c1F [Compound I-436]
41 | ≤ 10 | ≤ 10 | Cc1cc(-c2ccccc2)cc(C(=O)NNS(=O)(=O)Cc2ccccc2)c1F [Compound I-9]
42 | ≤ 10 | ≤ 10 | O=C(NNS(=O)(=O)c1ccc2ccccc2c1)c1c(F)ccc(-c2ccccc2)c1F [Compound I-164]
43 | 10 to 50 | ≤ 10 | Cc1cc(-c2ccccc2)cc(C(=O)NNS(=O)(=O)C(C)C2CCN(C(=O)OC(C)(C)C)CC2)c1F (stereo not shown) [Compound I-307]
44 | 10 to 50 | 10 to 50 | Cc1cc(-c2ccccc2)cc(C(=O)NNS(=O)(=O)C2CN(C(=O)OCc3ccccc3)C2)c1F [Compound I-121, Benzyl 3-((2-(4-fluoro-5-methyl-[1,1′-biphenyl]-3-carbonyl)hydrazinyl)sulfonyl)azetidine-1-carboxylate]
45 | ≤ 10 | 10 to 50 | COCc1cc(Cl)c(F)c(C(=O)NNS(=O)(=O)C2CCCCC2)c1 [Compound I-451]
46 | 50 to 100 | 10 to 50 | CCC(=O)N1CC(S(=O)(=O)NNC(=O)c2cc(-c3ccccc3)cc(C)c2F)C1 [Compound I-113]
47 | ≤ 10 | ≤ 10 | O=C(NNS(=O)(=O)CC1CCCN(C(=O)C2CCOCC2)C1)c1cc(-c2ccccc2)cc(Cl)c1F (stereo not shown) [Compound I-419]
48 | ≤ 10 | – | O=C(NNS(=O)(=O)CC1CCOCC1)c1cc(C2CCCO2)cc(Cl)c1F (stereo not shown) [Compound I-506]
49 | 50 to 100 | – | O=C(NNS(=O)(=O)c1ccc2ccccc2c1)c1ccccc1F [Compound I-238]
50 | ≤ 10 | – | Cc1cc(-c2ccccc2)cc(C(=O)NNS(=O)(=O)c2ccccc2)c1F [Compound I-157]
